Non-standard residues stand in square brackets, D forms with d. Residues, ends and D or L forms follow the SMILES beside them. *: point of attachment. Desaminotyrosyl = O=C(CCc1ccc(O)cc1)*; Tle = CC(C)(C)[C@H](N)C(=O)O
How the values were obtained:
DPP-IV = DPP-IV (Homo sapiens, UniProt P27487); assay: Assay for resistance to dipeptidyl peptidase IV (RP-HPLC of cleavage product); conditions: human, isolated human placental DPP-IV (dipeptidyl peptidase IV), pH 7.4, % Cleaved by DPP-IV, as Example 3: human placental DPP-IV, 37° C., PBS pH 7.4
DPP-IV, sequence (P27487 whole entry): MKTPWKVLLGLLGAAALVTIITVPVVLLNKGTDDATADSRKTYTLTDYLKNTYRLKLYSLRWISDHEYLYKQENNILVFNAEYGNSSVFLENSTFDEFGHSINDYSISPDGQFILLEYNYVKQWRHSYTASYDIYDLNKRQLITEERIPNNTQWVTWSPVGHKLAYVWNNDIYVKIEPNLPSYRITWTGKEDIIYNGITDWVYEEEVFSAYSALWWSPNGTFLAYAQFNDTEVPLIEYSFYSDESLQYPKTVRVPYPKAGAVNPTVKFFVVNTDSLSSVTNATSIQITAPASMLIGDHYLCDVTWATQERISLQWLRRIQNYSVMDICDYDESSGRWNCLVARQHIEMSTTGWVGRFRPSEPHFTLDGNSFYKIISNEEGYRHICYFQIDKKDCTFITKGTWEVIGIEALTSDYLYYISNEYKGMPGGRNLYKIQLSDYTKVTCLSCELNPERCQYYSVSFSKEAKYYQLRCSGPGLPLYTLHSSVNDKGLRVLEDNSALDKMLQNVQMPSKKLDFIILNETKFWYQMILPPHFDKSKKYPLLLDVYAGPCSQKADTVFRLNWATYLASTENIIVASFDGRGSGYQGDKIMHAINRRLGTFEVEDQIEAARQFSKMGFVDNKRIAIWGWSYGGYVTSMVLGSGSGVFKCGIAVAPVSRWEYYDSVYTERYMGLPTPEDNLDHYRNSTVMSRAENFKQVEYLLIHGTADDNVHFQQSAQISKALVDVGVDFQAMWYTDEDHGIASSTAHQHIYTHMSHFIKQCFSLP

CD1 mice = assay: Intestinotrophic activity assessment: small bowel weight in mice; format: in vivo; conditions: for % Activity (small bowel inducing activity relative to native rat GLP-2(1-33) = 100%): mice, as Example 4; for % Increase in small bowel weight: CD1 mice, 2.5 μg peptide s.c. b.i.d. in PBS, sacrificed 10 or 14 days, relative to vehicle only
In short: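 Female CD1 mice, 6 weeks old (n=3-4/group), given 2.5 μg peptide s.c. b.i.d. in PBS; sacrificed 10 or 14 days later after ≥20 h fast. Small bowel (pylorus to cecum) weighed; percent change versus vehicle mice, also expressed relative to rat GLP-2(1-33) set as 100%.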

Molecule: CC[C@H](C)[C@H](NC(=O)[C@H](Cc1ccccc1)NC(=O)[C@H](CC(=O)O)NC(=O)[C@H](CCCNC(=N)N)NC(=O)[C@H](C)NC(=O)[C@H](C)NC(=O)[C@H](CC(C)C)NC(=O)[C@H](CC(N)=O)NC(=O)[C@H](CC(=O)O)NC(=O)[C@H](CC(C)C)NC(=O)[C@@H](NC(=O)[C@@H](NC(=O)[C@H](CC(N)=O)NC(=O)[C@H](CCSC)NC(=O)[C@H](CCC(=O)O)NC(=O)[C@H](CC(=O)O)NC(=O)[C@H](CO)NC(=O)[C@H](Cc1ccccc1)NC(=O)[C@H](CO)NC(=O)CNC(=O)[C@H](CC(=O)O)NC(=O)[C@H](C)NC(=O)CCc1ccc(O)cc1)[C@@H](C)O)[C@@H](C)CC)C(=O)N[C@@H](CC(N)=O)C(=O)N[C@@H](Cc1c[nH]c2ccccc12)C(=O)N[C@@H](CC(C)C)C(=O)N[C@H](C(=O)N[C@@H](CCC(N)=O)C(=O)N[C@H](C(=O)N[C@@H](CCCCN)C(=O)N[C@H](C(=O)N[C@H](C(=O)N[C@@H](CC(=O)O)C(=O)O)[C@@H](C)O)[C@@H](C)CC)[C@@H](C)O)[C@@H](C)CC [[desNH2Tyr1]hGLP-2(1-33)] (Desaminotyrosyl-ADGSFSDEMNTILDNLAARDFINWLIQTKITD-OH)
- metabolised at 24 h, 0.19 mg/ml (DPP-IV): 15%
- % Activity (small bowel inducing activity relative to native rat GLP-2(1-33) = 100%) (CD1 mice): 125%

Molecule: CC[C@H](C)[C@H](NC(=O)[C@H](Cc1ccccc1)NC(=O)[C@H](CC(=O)O)NC(=O)[C@H](CCCNC(=N)N)NC(=O)[C@H](C)NC(=O)[C@H](C)NC(=O)[C@H](CC(C)C)NC(=O)[C@H](CC(N)=O)NC(=O)[C@H](CC(=O)O)NC(=O)[C@H](CC(C)C)NC(=O)[C@@H](NC(=O)[C@@H](NC(=O)[C@H](CC(N)=O)NC(=O)[C@H](CCSC)NC(=O)[C@H](CCC(=O)O)NC(=O)[C@H](CC(=O)O)NC(=O)[C@H](CO)NC(=O)[C@H](Cc1ccccc1)NC(=O)[C@H](CO)NC(=O)CNC(=O)[C@H](CC(=O)O)NC(=O)[C@@H](NC(=O)[C@@H](N)Cc1c[nH]cn1)C(C)(C)C)[C@@H](C)O)[C@@H](C)CC)C(=O)N[C@@H](CC(N)=O)C(=O)N[C@@H](Cc1c[nH]c2ccccc12)C(=O)N[C@@H](CC(C)C)C(=O)N[C@H](C(=O)N[C@@H](CCC(N)=O)C(=O)N[C@H](C(=O)N[C@@H](CCCCN)C(=O)N[C@H](C(=O)N[C@H](C(=O)N[C@@H](CC(=O)O)C(=O)O)[C@@H](C)O)[C@@H](C)CC)[C@@H](C)O)[C@@H](C)CC [[tBuGly2]hGLP-2] (H-H[Tle]DGSFSDEMNTILDNLAARDFINWLIQTKITD-OH)
- metabolised at 24 h, 0.19 mg/ml (DPP-IV): 0%
- % Activity (small bowel inducing activity relative to native rat GLP-2(1-33) = 100%) (CD1 mice): 123%

Molecule: CC[C@H](C)[C@H](NC(=O)[C@H](Cc1ccccc1)NC(=O)[C@H](CC(=O)O)NC(=O)[C@H](CCCNC(=N)N)NC(=O)[C@H](C)NC(=O)[C@H](C)NC(=O)[C@H](CC(C)C)NC(=O)[C@H](CC(N)=O)NC(=O)[C@H](CC(=O)O)NC(=O)[C@H](CC(C)C)NC(=O)[C@@H](NC(=O)[C@@H](NC(=O)[C@H](CC(N)=O)NC(=O)[C@H](CCSC)NC(=O)[C@H](CCC(=O)O)NC(=O)[C@H](CC(=O)O)NC(=O)[C@H](CO)NC(=O)[C@H](Cc1ccccc1)NC(=O)[C@H](CO)NC(=O)CNC(=O)[C@H](CC(=O)O)NC(=O)[C@H](C)NC(=O)[C@@H](N)Cc1c[nH]cn1)[C@@H](C)O)[C@@H](C)CC)C(=O)N[C@@H](CC(N)=O)C(=O)N[C@@H](Cc1c[nH]c2ccccc12)C(=O)N[C@@H](CC(C)C)C(=O)N[C@H](C(=O)N[C@@H](CCC(N)=O)C(=O)N[C@H](C(=O)N[C@@H](CCCCN)C(=O)N[C@H](C(=O)N[C@H](C(=O)N[C@@H](CC(=O)O)C(=O)O)[C@@H](C)O)[C@@H](C)CC)[C@@H](C)O)[C@@H](C)CC [hGLP-2(1-33), reference compound]
- metabolised at 24 h, 0.19 mg/ml (DPP-IV): 60%
- % Activity (small bowel inducing activity relative to native rat GLP-2(1-33) = 100%) (CD1 mice): 100%

Molecule: Ac-HADGSFSDEMNTILDNLATRDFINWLIQTKITD-OH [Ac-ratGLP-2(1-33)]
- metabolised at 24 h, 0.19 mg/ml (DPP-IV): 0%
- % Activity (small bowel inducing activity relative to native rat GLP-2(1-33) = 100%) (CD1 mice): 44%

Molecule: H-AGDGSFSDEMNTILDNLAARDFINWLIQTKITD-OH [[Ala1,Gly2]hGLP-2(1-33)]
- metabolised at 24 h, 0.19 mg/ml (DPP-IV): 0%
- % Increase in small bowel weight (CD1 mice): 23%
- % Activity (small bowel inducing activity relative to native rat GLP-2(1-33) = 100%) (CD1 mice): 53%

Molecule: H-DADGSFSDEMNTILDNLAARDFINWLIQTKITD-OH [[Asp1]hGLP-2(1-33)]
- metabolised at 24 h, 0.19 mg/ml (DPP-IV): 0%
- % Activity (small bowel inducing activity relative to native rat GLP-2(1-33) = 100%) (CD1 mice): 60%

Molecule: H-HADASFSDEMNTILDNLATRDFINWLIQTKITD-OH [[Ala4]ratGLP-2(1-33)]
- metabolised at 24 h, 0.19 mg/ml (DPP-IV): 72%
- % Increase in small bowel weight (CD1 mice): 30%
- % Activity (small bowel inducing activity relative to native rat GLP-2(1-33) = 100%) (CD1 mice): 59%

Molecule: H-HADGAFADEMNTILDNLAARDFINWLIQTKITD-OH [[Ala5, Ala7]hGLP-2(1-33)]
- metabolised at 24 h, 0.19 mg/ml (DPP-IV): 77%
- % Activity (small bowel inducing activity relative to native rat GLP-2(1-33) = 100%) (CD1 mice): 108%

Molecule: H-HADGSFSDEMNTILDNLAARDFINFLIQTKITD-OH [[Phe25]hGLP-2(1-33)]
- metabolised at 24 h, 0.19 mg/ml (DPP-IV): 54%
- % Activity (small bowel inducing activity relative to native rat GLP-2(1-33) = 100%) (CD1 mice): 114%

Molecule: H-HADGSFSDEMNTILDNLAARDFINWLIQTKITE-OH [[Glu33]hGLP-2(1-33)]
- metabolised at 24 h, 0.19 mg/ml (DPP-IV): 55%
- % Activity (small bowel inducing activity relative to native rat GLP-2(1-33) = 100%) (CD1 mice): 121%

Molecule: H-HADGSFSDEMNTILDNLAARDFINWLIQTRITD-OH [[Arg30]hGLP-2(1-33)]
- metabolised at 24 h, 0.19 mg/ml (DPP-IV): 59%
- % Activity (small bowel inducing activity relative to native rat GLP-2(1-33) = 100%) (CD1 mice): 103%

Molecule: H-HADGSFSDEMNTILDNLAARDFINYLIQTKITD-OH [[Tyr25]hGLP-2(1-33)]
- metabolised at 24 h, 0.19 mg/ml (DPP-IV): 48%
- % Activity (small bowel inducing activity relative to native rat GLP-2(1-33) = 100%) (CD1 mice): 64%

Molecule: H-HAEGSFSDEMNTILDNLATRDFINWLIQTKITD-OH [[Glu3]ratGLP-2(1-33)]
- metabolised at 24 h, 0.19 mg/ml (DPP-IV): 50%
- % Increase in small bowel weight (CD1 mice): 33%
- % Activity (small bowel inducing activity relative to native rat GLP-2(1-33) = 100%) (CD1 mice): 65%

Molecule: H-HAPGSFSDEMNTILDNLAARDFINWLIQTKITD-OH [[Pro3]hGLP-2(1-33)]
- metabolised at 24 h, 0.19 mg/ml (DPP-IV): 0%
- % Activity (small bowel inducing activity relative to native rat GLP-2(1-33) = 100%) (CD1 mice): 140%

Molecule: H-HDDGSFSDEMNTILDNLAARDFINWLIQTKITD-OH [[Asp2]hGLP-2(1-33)]
- metabolised at 24 h, 0.19 mg/ml (DPP-IV): 0%
- % Activity (small bowel inducing activity relative to native rat GLP-2(1-33) = 100%) (CD1 mice): 83%

Molecule: H-HEDGSFSDEMNTILDNLAARDFINWLIQTKITD-OH [[Glu2]hGLP-2(1-33)]
- metabolised at 24 h, 0.19 mg/ml (DPP-IV): 0%
- % Activity (small bowel inducing activity relative to native rat GLP-2(1-33) = 100%) (CD1 mice): 93%

Molecule: H-HFDGSFSDEMNTILDNLAARDFINWLIQTKITD-OH [[Phe2]hGLP-2(1-33)]
- metabolised at 24 h, 0.19 mg/ml (DPP-IV): 0%
- % Activity (small bowel inducing activity relative to native rat GLP-2(1-33) = 100%) (CD1 mice): 50%

Molecule: H-HGAGSFSDEMNTILDNLAARDFINWLIQTKITD-OH [[Gly2,Ala3]hGLP-2(1-33)]
- metabolised at 24 h, 0.19 mg/ml (DPP-IV): 0%
- % Increase in small bowel weight (CD1 mice): 18%
- % Activity (small bowel inducing activity relative to native rat GLP-2(1-33) = 100%) (CD1 mice): 44%

Molecule: H-HGDASFSDEMNTILDNLAARDFINWLIQTKITD-OH [[Gly2,Ala4]hGLP-2(1-33)]
- metabolised at 24 h, 0.19 mg/ml (DPP-IV): 0%
- % Increase in small bowel weight (CD1 mice): 36%
- % Activity (small bowel inducing activity relative to native rat GLP-2(1-33) = 100%) (CD1 mice): 100%

Molecule: H-HGDGAFSDEMNTILDNLAARDFINWLIQTKITD-OH [[Gly2,Ala5]hGLP-2(1-33)]
- metabolised at 24 h, 0.19 mg/ml (DPP-IV): 0%
- % Increase in small bowel weight (CD1 mice): 38%
- % Activity (small bowel inducing activity relative to native rat GLP-2(1-33) = 100%) (CD1 mice): 136%

Molecule: H-HGDGSFSDEMNTILDNLAARDFIAWLIQTKITD-OH [[Gly2,Ala24]hGLP-2(1-33)]
- metabolised at 24 h, 0.19 mg/ml (DPP-IV): 0%
- % Increase in small bowel weight (CD1 mice): 67%
- % Activity (small bowel inducing activity relative to native rat GLP-2(1-33) = 100%) (CD1 mice): 139%

Molecule: H-HHDGSFSDEMNTILDNLAARDFINWLIQTKITD-OH [[His2]hGLP-2(1-33)]
- metabolised at 24 h, 0.19 mg/ml (DPP-IV): 0%
- % Activity (small bowel inducing activity relative to native rat GLP-2(1-33) = 100%) (CD1 mice): 0%

Molecule: H-HIDGSFSDEMNTILDNLAARDFINWLIQTKITD-OH [[Ile2]hGLP-2(1-33)]
- metabolised at 24 h, 0.19 mg/ml (DPP-IV): 0%
- % Activity (small bowel inducing activity relative to native rat GLP-2(1-33) = 100%) (CD1 mice): 90%

Molecule: H-HKDGSFSDEMNTILDNLAARDFINWLIQTKITD-OH [[Lys2]hGLP-2(1-33)]
- metabolised at 24 h, 0.19 mg/ml (DPP-IV): 0%
- % Activity (small bowel inducing activity relative to native rat GLP-2(1-33) = 100%) (CD1 mice): 90%

Molecule: H-HMDGSFSDEMNTILDNLAARDFINWLIQTKITD-OH [[Met2]hGLP-2(1-33)]
- metabolised at 24 h, 0.19 mg/ml (DPP-IV): 0%
- % Activity (small bowel inducing activity relative to native rat GLP-2(1-33) = 100%) (CD1 mice): 170%

Molecule: H-HNDGSFSDEMNTILDNLAARDFINWLIQTKITD-OH [[Asn2]hGLP-2(1-33)]
- metabolised at 24 h, 0.19 mg/ml (DPP-IV): 0%
- % Activity (small bowel inducing activity relative to native rat GLP-2(1-33) = 100%) (CD1 mice): 67%

Molecule: H-HPDGSFSDEMNTILDNLAARDFINWLIQTKITD-OH [[Pro2]hGLP-2(1-33)]
- metabolised at 24 h, 0.19 mg/ml (DPP-IV): 16%
- % Activity (small bowel inducing activity relative to native rat GLP-2(1-33) = 100%) (CD1 mice): 50%

Molecule: H-HQDGSFSDEMNTILDNLAARDFINWLIQTKITD-OH [[Gln2]hGLP-2(1-33)]
- metabolised at 24 h, 0.19 mg/ml (DPP-IV): 0%
- % Activity (small bowel inducing activity relative to native rat GLP-2(1-33) = 100%) (CD1 mice): 100%

Molecule: H-HSDGSFSDEMNTILDNLAARDFINWLIQTKITD-OH [[Ser2]hGLP-2(1-33)]
- metabolised at 24 h, 0.19 mg/ml (DPP-IV): 0%
- % Activity (small bowel inducing activity relative to native rat GLP-2(1-33) = 100%) (CD1 mice): 167%

Source: US8933039B2 (NPS Pharmaceuticals, Inc., priority 1995, dated 2015)
